# Structures can show the parent of a compound that is named as a salt. Activity calls are given as the source filed them.
# Experiments:
# Caspase-3 = biological target: T1, Caspase-3 (Homo sapiens, UniProt P42574); type: functional;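 also: Dose-response selectivity test against caspase-3 for candidate inhibitors of sentrin-specific proteases (SENPs)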
# T1 sequence (P42574 whole entry): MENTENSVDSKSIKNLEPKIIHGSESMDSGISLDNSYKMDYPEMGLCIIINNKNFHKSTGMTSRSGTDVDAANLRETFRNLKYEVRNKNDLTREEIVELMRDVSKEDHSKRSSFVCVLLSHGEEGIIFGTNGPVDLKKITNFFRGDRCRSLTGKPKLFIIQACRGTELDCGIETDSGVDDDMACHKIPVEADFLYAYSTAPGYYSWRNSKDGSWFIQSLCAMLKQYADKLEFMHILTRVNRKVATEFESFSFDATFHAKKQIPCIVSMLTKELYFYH
# [1] = biological target: T2, Sentrin-specific protease 7 (Homo sapiens, UniProt Q9BQF6); type: functional;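 also: Luminescence-based dose-response confirmation of ultra-high-throughput screening hits, measuring inhibition of SENP7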
# T2 sequence (Q9BQF6 whole entry): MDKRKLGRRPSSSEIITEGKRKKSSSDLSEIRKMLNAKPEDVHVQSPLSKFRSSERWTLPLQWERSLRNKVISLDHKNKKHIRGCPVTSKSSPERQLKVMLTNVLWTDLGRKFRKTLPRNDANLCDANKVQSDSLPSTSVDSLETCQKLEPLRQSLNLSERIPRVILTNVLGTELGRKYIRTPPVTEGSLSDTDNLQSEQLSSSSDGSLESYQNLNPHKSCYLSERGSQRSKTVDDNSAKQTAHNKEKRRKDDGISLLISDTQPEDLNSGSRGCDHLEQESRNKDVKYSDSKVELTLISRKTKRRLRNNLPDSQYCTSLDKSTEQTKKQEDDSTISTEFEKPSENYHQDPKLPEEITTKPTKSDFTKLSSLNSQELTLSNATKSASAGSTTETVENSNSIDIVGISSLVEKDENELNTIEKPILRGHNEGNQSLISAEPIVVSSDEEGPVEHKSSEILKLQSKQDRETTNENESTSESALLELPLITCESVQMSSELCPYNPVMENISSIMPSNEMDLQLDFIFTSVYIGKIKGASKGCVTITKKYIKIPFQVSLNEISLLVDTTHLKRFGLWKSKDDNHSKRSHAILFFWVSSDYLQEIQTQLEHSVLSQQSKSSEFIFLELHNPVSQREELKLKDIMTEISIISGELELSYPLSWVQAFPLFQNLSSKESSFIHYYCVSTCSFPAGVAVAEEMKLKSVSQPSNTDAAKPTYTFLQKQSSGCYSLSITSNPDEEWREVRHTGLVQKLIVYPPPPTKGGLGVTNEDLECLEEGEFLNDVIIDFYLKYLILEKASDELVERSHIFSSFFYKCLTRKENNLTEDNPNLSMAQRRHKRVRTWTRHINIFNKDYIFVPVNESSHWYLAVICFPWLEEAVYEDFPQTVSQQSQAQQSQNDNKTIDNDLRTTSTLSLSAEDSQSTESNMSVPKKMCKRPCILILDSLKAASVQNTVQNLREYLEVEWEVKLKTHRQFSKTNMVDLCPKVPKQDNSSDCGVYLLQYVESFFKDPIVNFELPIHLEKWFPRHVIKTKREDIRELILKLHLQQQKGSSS
# [2] = biological target: T3, Sentrin-specific protease 6 (Homo sapiens, UniProt Q9GZR1); type: functional;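 also: Luminescence-based dose-response confirmatory assay of SENP6 inhibition, following up an ultra-high-throughput screen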
# T3 sequence (Q9GZR1 whole entry): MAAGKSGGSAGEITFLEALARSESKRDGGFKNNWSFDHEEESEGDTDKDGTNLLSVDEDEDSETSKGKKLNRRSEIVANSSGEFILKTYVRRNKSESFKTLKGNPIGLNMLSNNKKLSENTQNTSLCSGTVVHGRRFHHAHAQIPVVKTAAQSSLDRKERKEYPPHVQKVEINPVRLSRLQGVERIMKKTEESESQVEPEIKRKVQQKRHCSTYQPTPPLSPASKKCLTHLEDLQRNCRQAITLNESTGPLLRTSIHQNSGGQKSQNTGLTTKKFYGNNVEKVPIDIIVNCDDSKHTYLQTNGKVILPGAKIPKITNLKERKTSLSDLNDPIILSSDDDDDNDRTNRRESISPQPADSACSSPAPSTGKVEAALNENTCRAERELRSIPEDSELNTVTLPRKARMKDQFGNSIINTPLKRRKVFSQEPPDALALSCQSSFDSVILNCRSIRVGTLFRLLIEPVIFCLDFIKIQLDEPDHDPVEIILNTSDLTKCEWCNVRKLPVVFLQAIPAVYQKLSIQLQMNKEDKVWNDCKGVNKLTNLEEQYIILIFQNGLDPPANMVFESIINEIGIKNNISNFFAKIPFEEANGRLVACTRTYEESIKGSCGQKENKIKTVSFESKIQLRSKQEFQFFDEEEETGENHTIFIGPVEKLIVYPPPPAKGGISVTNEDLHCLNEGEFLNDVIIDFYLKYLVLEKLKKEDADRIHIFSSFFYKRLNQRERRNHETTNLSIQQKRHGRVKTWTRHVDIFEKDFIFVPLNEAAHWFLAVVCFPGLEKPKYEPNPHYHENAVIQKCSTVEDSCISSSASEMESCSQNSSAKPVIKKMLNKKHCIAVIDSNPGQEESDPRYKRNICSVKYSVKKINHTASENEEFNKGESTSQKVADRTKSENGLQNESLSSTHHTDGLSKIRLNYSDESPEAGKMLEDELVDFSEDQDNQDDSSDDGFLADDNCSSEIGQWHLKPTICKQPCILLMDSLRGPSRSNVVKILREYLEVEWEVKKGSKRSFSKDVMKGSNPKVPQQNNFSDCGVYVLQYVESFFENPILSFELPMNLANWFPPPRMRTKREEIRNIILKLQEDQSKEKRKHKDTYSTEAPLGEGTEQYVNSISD
# [3] = biological target: T4, Sentrin-specific protease 8 (Homo sapiens, UniProt Q96LD8); type: functional;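 also: luminescence read-out of SENP8 inhibition, dose-response confirmation following an ultra-high-throughput screen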
# T4 sequence (Q96LD8 whole entry): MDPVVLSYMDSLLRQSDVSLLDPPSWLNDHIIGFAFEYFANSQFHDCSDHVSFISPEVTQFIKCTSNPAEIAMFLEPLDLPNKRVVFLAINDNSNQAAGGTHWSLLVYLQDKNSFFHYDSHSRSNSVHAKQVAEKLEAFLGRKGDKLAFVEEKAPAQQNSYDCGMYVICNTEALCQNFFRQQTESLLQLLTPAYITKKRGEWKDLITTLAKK
# [4] = luciferase reporter signal suppression in cells – H4 neuroglioma cells, luminescence, dose response (AID 1990); type: functional, cell-based
# [5] = luciferase reporter signal reduction – luminescence, H4-C neuroglioblastoma cells, dose response (AID 2458); type: functional, cell-based;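 also: H4 neuroglioblastoma cells stably carrying a luciferase reporter gene fusion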
# BJ [6] = experiment: BJ-TERT fibroblast viability loss – cell-based, RAS-independent, luminescence, dose response (AID 1933); type: functional; details: Homo sapiens
# cells [7] = type: functional, cell-based
# [8] = Luminescence Cell-Based Dose Response HTS to Identify Inhibitors of 5'UTR Stem-Loop Driven Prion Protein mRNA Translation in H4 Neuroglioblastoma Cells. [Related pubchem assays: 1827 (Project Summary), 1813 (Primary HTS)]; type: functional
# [9] = alpha-synuclein stem-loop luciferase translation blockers – H4 neuroglioma cells, luminescence, confirmation (AID 1988); type: functional, cell-based
# BJ [10] = experiment: cells; type: functional, cell-based; details: Homo sapiens
# BJ [11] = experiment: BJ-TERT-LT-ST fibroblast viability loss – cell-based, RAS-independent, luminescence, dose response (AID 1935); type: functional; details: Homo sapiens;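 also: BJ fibroblasts immortalized with TERT plus LT and ST oncogenes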
# [12] = DRD fibroblast viability loss – cell-based, non-viral oncogenic, luminescence, dose response (AID 1934); type: functional; details: Homo sapiens
# [13] = alpha-synuclein stem-loop translation blockers – luminescence, H4 neuroglioblastoma cells, dose confirmation, confirmation (AID 2454); type: functional, cell-based;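 also: H4 neuroglioblastoma cells carrying an alpha-synuclein 5'UTR luciferase reporter; potency for inhibition of the luciferase signal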
# BJ [14] = experiment: growth inhibition of engineered Ras-driven BJ cells – cell-based, alamar blue fluorescence, cherrypicked samples, dose response (AID 2631); type: functional; details: Homo sapiens;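 also: confirmatory dose-response assay in RAS-dependent BJ fibroblasts engineered with TERT, LT and ST, with cytotoxicity read by fluorescence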
# cells [15] = type: functional, cell-based; remark: listed apart in the source
# [16] = biological target: T5, Nuclear receptor subfamily 0 group B member 1 (Homo sapiens, UniProt P51843); type: functional, cell-based;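 also: HEK293T cells transfected with SF-1 and DAX-1 plus StAR promoter luciferase reporter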
# T5 sequence (P51843 whole entry): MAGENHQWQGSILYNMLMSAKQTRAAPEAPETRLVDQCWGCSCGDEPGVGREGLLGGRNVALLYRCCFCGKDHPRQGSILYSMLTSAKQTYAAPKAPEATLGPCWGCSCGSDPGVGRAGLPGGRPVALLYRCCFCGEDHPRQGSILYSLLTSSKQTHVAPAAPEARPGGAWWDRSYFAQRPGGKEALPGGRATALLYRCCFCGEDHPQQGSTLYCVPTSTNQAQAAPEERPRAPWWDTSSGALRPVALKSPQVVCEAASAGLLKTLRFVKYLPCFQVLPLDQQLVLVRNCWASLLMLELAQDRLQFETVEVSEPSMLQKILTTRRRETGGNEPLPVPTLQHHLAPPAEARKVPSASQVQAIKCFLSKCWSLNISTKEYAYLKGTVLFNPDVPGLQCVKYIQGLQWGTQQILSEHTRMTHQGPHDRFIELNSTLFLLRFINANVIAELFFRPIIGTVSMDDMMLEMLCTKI
# Paired box protein Pax-8 = Paired box protein Pax-8 (Homo sapiens, UniProt Q06710); experiment: PAX8 transcriptional activity inhibition in RMG-I – RMG-I cells, luciferase, cherry-pick, dose response (AID 687027); type: functional, cell-based;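 also: luciferase reporter driven by Pax8 target thyroperoxidase promoter measured by SteadyGlo luminescence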
# [17] = Fluorescence-based cell-based high throughput dose response assay for inhibitors of the interaction of nucleotide-binding oligomerization domain containing 2 (NOD2) and the receptor-interacting serine-threonine kinase 2 (RIPK2).; type: functional; details: Homo sapiens
# [18] = A549 cell cytotoxicity, dose response, cytotoxicity control, plate reader, cherry-pick, antagonist series (AID 743412); type: functional, cell-based
# [19] = toxicity toward HepG2 liver cells – cell-based, plate reader, cherry-pick, antagonist series, cytotoxicity control, dose response (AID 743416); type: functional
# [20] = blockers of bursicon-stimulated LGR2 cAMP reporter – cell-based, HEK293, CRE-luciferase reporter, cherry pick, set 2, dose response (AID 743343); type: functional;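 also: transfected cells were stimulated with diluted bursicon conditioned medium after compound addition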
# [21] = blockade of melanocortin 4 receptor signaling – cell-based, plate reader, cherry pick, counter-screen for LGR2 antagonist project, dose response (AID 743444); type: functional;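 also: transfected HEK 293 cells stimulated with alpha-MSH peptide; potency of inhibitors of the alpha-MSH evoked signal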
# [22] = viability loss in HEK293 cells – cell-based, plate reader, cherry-picked samples, cytotoxicity control, dose response (AID 743446); type: functional
# Escherichia coli [23] = experiment: microbe, parasite or virus in culture
# Escherichia coli [24] = experiment: microbe, parasite or virus in culture; remark: listed apart in the source
# Cytochrome P450 2C19 = Cytochrome P450 2C19 (Homo sapiens, UniProt P33261); experiment: Cytochrome panel assay with activity outcomes. Panel member name: p450-cyp2c19 Compounds with AC50 equal or less than 10 uM are considered active; type: functional; details: read-out: AC50
# Cytochrome P450 1A2 = biological target: T6, Cytochrome P450 1A2 (Homo sapiens, UniProt P05177);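 also: PubChem cytochrome P450 panel assay, CYP1A2 panel member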
# T6 sequence (P05177 whole entry): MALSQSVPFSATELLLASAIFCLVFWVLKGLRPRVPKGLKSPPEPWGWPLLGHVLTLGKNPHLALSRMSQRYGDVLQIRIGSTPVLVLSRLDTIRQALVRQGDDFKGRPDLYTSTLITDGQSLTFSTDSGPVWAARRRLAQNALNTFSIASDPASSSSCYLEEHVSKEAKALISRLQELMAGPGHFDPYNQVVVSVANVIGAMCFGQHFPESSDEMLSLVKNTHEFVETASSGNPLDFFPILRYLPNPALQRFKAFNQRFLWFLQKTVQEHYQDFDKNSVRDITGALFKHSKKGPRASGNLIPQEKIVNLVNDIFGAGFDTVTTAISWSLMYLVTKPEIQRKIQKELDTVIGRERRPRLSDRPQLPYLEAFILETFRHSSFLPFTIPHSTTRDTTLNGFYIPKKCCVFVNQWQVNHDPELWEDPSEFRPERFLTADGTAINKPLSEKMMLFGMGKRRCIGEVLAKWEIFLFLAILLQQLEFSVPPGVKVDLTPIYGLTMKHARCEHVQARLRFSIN
# Cytochrome P450 3A4 = Cytochrome P450 3A4 (Homo sapiens, UniProt P08684);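 also: CYP3A4 tested as one member of a cytochrome P450 panel screen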
# [25] = tested on: Streptococcus sp. 'group A'; experiment: Streptococcus pyogenes SK(-)GAS viability under kanamycin – luminescence, BacTiterGlo, confirmation, counter-screen for streptokinase expression inhibitor project, dose response (AID 1900); type: functional, organism-based
# Streptococcus = experiment: GAS UMAA2166 growth inhibition – luminescence, BacTiterGlo, counter-screen for streptokinase expression inhibitor project, dose response (AID 1915); type: functional, organism-based;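 also: potency for reduction of bacterial viability or growth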
# Chain of Paired box protein Pax-8 (Q06710 whole entry, the tested form may be a part): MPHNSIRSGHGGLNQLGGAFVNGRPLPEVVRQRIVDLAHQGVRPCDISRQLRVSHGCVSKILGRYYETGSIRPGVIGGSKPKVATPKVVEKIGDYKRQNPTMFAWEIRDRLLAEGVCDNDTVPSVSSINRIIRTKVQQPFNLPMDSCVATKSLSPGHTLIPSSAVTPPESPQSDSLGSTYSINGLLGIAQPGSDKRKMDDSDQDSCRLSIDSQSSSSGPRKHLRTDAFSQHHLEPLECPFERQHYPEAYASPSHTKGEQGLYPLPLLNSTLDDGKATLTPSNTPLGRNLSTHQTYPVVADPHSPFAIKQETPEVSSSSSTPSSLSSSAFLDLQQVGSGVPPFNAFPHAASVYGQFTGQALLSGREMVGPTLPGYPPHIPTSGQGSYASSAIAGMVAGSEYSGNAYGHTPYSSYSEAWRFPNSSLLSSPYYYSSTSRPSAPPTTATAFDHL
# Chain of Cytochrome P450 3A4 (P08684 whole entry): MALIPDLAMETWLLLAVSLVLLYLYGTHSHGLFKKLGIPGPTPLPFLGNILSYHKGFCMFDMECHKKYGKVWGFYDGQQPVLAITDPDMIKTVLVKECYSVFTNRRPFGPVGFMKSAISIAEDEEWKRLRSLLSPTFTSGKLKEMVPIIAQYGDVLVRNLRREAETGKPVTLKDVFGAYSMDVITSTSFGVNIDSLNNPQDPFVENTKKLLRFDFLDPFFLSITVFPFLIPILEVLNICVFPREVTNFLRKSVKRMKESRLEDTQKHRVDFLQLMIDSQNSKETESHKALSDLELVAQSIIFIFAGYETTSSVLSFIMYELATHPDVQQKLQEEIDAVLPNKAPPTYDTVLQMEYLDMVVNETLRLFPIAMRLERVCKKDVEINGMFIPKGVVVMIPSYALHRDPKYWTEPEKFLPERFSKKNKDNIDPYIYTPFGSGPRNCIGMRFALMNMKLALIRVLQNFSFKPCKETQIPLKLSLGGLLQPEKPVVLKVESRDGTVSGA
# Chain of Cytochrome P450 2C19 (P33261 whole entry): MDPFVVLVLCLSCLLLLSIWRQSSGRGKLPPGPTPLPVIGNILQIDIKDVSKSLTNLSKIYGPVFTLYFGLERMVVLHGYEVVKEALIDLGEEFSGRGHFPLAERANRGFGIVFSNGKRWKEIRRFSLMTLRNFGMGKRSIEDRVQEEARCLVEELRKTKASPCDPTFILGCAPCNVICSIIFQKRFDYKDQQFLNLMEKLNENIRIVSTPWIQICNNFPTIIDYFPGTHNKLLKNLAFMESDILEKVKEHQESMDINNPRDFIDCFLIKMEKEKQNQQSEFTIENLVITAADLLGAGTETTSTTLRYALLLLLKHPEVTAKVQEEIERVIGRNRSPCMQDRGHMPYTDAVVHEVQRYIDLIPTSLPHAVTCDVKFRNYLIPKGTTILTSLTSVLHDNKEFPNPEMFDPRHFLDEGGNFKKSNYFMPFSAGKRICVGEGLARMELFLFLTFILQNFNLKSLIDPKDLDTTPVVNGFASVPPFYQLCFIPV
smiles,measurement,setting,value
COc1ccc2nc(NC(=O)c3cccc(OCc4c(C)noc4C)c3)sc2c1,IC50,Caspase-3,> 100 µM (inactive)
same,IC50,[1],3.67 µM (active)
same,IC50,[2],4.78 µM (active)
same,IC50,[3],> 100 µM (inactive)
O=C(c1cc([N+](=O)[O-])ccc1N1CCOCC1)N1CCN(c2ccccc2)CC1,EC50,[4],0.681 µM (active)
same,EC50,[5],0.501 µM (active)
same,EC50,BJ [6],0.309 µM (active)
same,EC50,cells [7],0.959 µM (active)
same,EC50,[8],< 0.1 µM (active)
same,EC50,[9],< 0.1 µM (active)
same,EC50,BJ [10],1.2 µM (inconclusive)
same,EC50,BJ [11],0.338 µM (inconclusive)
same,EC50,[12],0.633 µM (inconclusive)
same,EC50,[13],0.738 µM (active)
same,EC50,BJ [14],< 0.104 µM (active)
same,IC50,cells [15],> 67.5 µM (inactive)
same,IC50,[16],> 67.5 µM (inactive)
same,AC50,Paired box protein Pax-8,3.76 µM (active)
N#CC1c2ccccc2-n2nncc2CN1Cc1cc(Cl)cc(Cl)c1 (stereo not drawn),IC50,[17],5.8 µM (active)
same,AC50,Paired box protein Pax-8,10.2 µM (active)
same,AC50,[18],15.2 µM (active)
same,AC50,[19],7.48 µM (active)
same,AC50,[20],3.37 µM (active)
same,AC50,[21],2.45 µM (active)
same,AC50,[22],6.5 µM (active)
same,AC50,Escherichia coli [23],22.5 µM (active)
same,AC50,Escherichia coli [24],2.36 µM (active)
c1ccc(CN2CCC3(CCCc4ccccc43)CC2)cc1,AC50,Cytochrome P450 2C19,10 µM (inconclusive)
same,AC50,Cytochrome P450 1A2,31.6 µM (inconclusive)
same,AC50,Cytochrome P450 3A4,inconclusive
Cc1cccc(/C=N\N=C\c2cccc(C)c2)c1,IC50,Caspase-3,24.6 µM (active)
same,IC50,[1],7.09 µM (active)
same,IC50,[2],27.6 µM (active)
same,IC50,[3],47 µM (active)
CN(C)[C@@H]1C(O)=C(C(N)=O)C(=O)[C@@]2(O)C(O)=C3C(=O)c4c(O)ccc(Cl)c4[C@@](C)(O)[C@H]3C[C@@H]12 [CHLORTETRACYCLINE HYDROCHLORIDE],EC50,[25],< 0.06 µM (active)
same,EC50,Streptococcus,0.148 µM (active)
same,AC50,Escherichia coli [23],19.8 µM (active)
same,AC50,Escherichia coli [24],0.93 µM (active)

# — ChEMBL document CHEMBL1201862, “PubChem BioAssay data set” (2004)
